The term EC50 denotes the concentration needed to bring the measured effect to its halfway point. Lower therefore signals an effect from little substance.

Where a name gives a salt, the structure may show the parent alone.

The values that follow come from patent US10981932B2, “Macrocyclic indole derivatives” (Bayer Aktiengesellschaft, priority 2016, dated 2021).

One series addresses MCL-1 (Homo sapiens, UniProt Q07820). The series can be described thus: Protein-protein interaction assay MCL-1/Noxa BH3 peptide (MCL-1 assay), TR-FRET. The settings on record: MBP-MCL-1 / Noxa BH3-derived peptide, median. The class given is binding. An outline of the steps: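 Inhibition values were normalized between DMSO controls with all reagents and controls lacking MCL-1. The binding competition used 1 nM MBP-MCL-1 in pH 7 Tris buffer containing 50 mM KF and 100 mM NaCl, with a 10 min compound preincubation at 22 °C.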

Series [1] relates to SUDHL5. Description: Induction of caspase-3/7 activity (Caspase-Glo 3/7), SUDHL5. The class given is cell-based. Conditions: caspase-3/7 induction, SUDHL5 cells, 3 h treatment; median. An outline of the steps: (§1)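 Apoptosis induction measured as caspase-3/7 activity (Caspase-Glo 3/7) in DLBCL lines after 3 h treatment at 37 °C; EC50 derived relative to the reference compound's maximal induction, with C0 fixed at 1.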

Series [2] has as its system SUDHL10. The series can be described thus: Induction of caspase-3/7 activity (Caspase-Glo 3/7), SUDHL10. In kind it is cell-based. The settings on record: caspase-3/7 induction, SUDHL10 cells, 3 h treatment; median. An outline of the steps: as §1
Series [3] concerns SUDHL5. Description: Anti-proliferative effect (CellTiter-Glo, 72 h), SUDHL5. The settings on record: SUDHL5 cells, antiproliferation, median, read-out: Antiproli SUDHL5 [M] (median). The class given is cell-based. Put shortly: (§2)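 Luminescence from CellTiter-Glo, read 10 min after reagent addition, reports viable cell content after 72 h of compound treatment at 37 °C. A reference plate read at day 0 gives the starting baseline.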

Series [4] concerns SUDHL10. The series can be described thus: Anti-proliferative effect (CellTiter-Glo, 72 h), SUDHL10. The settings on record: SUDHL10 cells, antiproliferation, median, read-out: Antiproli SUDHL10 [M] (median). In kind it is cell-based. An outline of the steps:
as §2
A general note: ATP-based viability assays read luminescence as a measure of living cells.

The subject of another series is A2780. Description: Anti-proliferative effect (CellTiter-Glo, 72 h), A2780. In kind it is cell-based. Conditions: A2780 cells, median, read-out: IC50 antiproliferation assay A2780 [M] (median). An outline of the steps:
as §2

Series [5] deals with SUDHL5. The series can be described thus: Induction of cytotoxicity (CellTiter-Glo, 5 h), SUDHL5. The settings on record: read-out: Cytotox SUDHL5 [M] (median), SUDHL5 cells, cytotoxicity induction, CellTiter-Glo, median.
Series [6] concerns SUDHL10. The series can be described thus: Induction of cytotoxicity (CellTiter-Glo, 5 h), SUDHL10. Conditions: read-out: Cytotox SUDHL10 [M] (median), SUDHL10 cells, cytotoxicity induction, CellTiter-Glo, median.

MCL-1, sequence (Q07820 whole entry): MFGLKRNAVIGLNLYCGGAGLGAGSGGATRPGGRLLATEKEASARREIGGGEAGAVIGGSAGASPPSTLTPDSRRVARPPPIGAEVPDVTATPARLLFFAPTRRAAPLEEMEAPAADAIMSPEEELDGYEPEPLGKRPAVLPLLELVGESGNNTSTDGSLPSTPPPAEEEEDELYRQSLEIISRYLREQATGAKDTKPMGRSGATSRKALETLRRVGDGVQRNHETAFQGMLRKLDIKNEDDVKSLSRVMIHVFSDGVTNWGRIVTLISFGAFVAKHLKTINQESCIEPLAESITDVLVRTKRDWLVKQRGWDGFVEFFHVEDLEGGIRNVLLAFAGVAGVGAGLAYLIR

As to `Cn1nc(CN2CC(F)(F)C2)c2c1COCCCCn1c(C(=O)O)c(CCCOc3cccc4ccccc34)c3cccc-2c31` (single isomer, unassigned; enantiomer 2) [Example 182, 3-[(3,3-difluoroazetidin-1-yl)methyl]-1-methyl-7-[3-(naphthalen-1-yloxy)propyl]-1,10,11,12,13,15-hexahydropyrazolo[4′,3′:9,10][1,6]oxazacycloundecino[8,7,6-hi]indole-8-carboxylic acid-N-ethylethanamine Salt (Enantiomer 2)], the IC50 on MCL-1 is 0.122 µM; in the series on SUDHL5 [3] (72 h incubation), 1.91e-05 M; in the series on SUDHL10 [4] (72 h incubation) it was 6.02e-06 M; in the series on A2780, 1.75e-05 M; in the series with SUDHL5 [5] (5 h incubation), over 3.3e-05 M; in the series on SUDHL10 [6] (5 h incubation) it was over 3.3e-05 M. Further, the EC50 in the series on SUDHL5 [1] and in the series on SUDHL10 [2] was over 33 µM each time.

Turning to `COCc1nn(C)c2c1-c1cccc3c(CCCOc4cccc5ccccc45)c(C(=O)O)n(c13)CCCCN(C)C2` (single isomer, unassigned; enantiomer 2) [Example 185, 3-(methoxymethyl)-1,14-dimethyl-7-[3-(naphthalen-1-yloxy)propyl]-10,11,12,13,14,15-hexahydro-1H-pyrazolo[3′,4′:8,9][1,6]diazacycloundecino[10,11,1-hi]indole-8-carboxylic acid —N-ethylethanamine Salt (Enantiomer 2)], the IC50 against MCL-1 was 0.211 µM; with SUDHL5 [3] (72 h incubation) it was 1.98e-05 M; in the series on SUDHL10 [4] (72 h incubation), 8.53e-06 M; in the series with A2780, 1.88e-05 M; in the series with SUDHL5 [5] (5 h incubation), 2.75e-05 M; in the series on SUDHL10 [6] (5 h incubation) it was over 3.3e-05 M. Besides, the EC50 with SUDHL5 [1] and with SUDHL10 [2] was over 33 µM in each case.

For `CCCc1nn(C)c2c1-c1c(C)ccc3c(CCCOc4cccc5ccccc45)c(C(=O)O)n(c13)CCCCOC2` (single isomer, unassigned; enantiomer 2) [Example 189, 1,4-dimethyl-7-[3-(naphthalen-1-yloxy)propyl]-3-propyl-1,10,11,12,13,15-hexahydropyrazolo[4′3′:9,10][1,6]oxazacycloundecino[8,7,6-hi]indole-8-caboxylic acid-N-ethylethanamine Salt (Enantiomer 2)], the IC50 was 0.142 µM on MCL-1; 1.09e-05 M in the series on SUDHL5 [3] (72 h incubation); 2.01e-05 M in the series on SUDHL10 [4] (72 h incubation); 1.78e-05 M with A2780; 2.86e-05 M in the series with SUDHL5 [5] (5 h incubation); over 3.3e-05 M in the series with SUDHL10 [6] (5 h incubation). For the same compound, the EC50 with SUDHL5 [1] and with SUDHL10 [2] was over 33 µM in each case.

For the compound `Cc1c2c(nn1C)CCCCCCn1c(C(=O)O)c(CCCOc3cccc4ccccc34)c3cccc-2c31` (single isomer, unassigned; enantiomer 2) [Example 192, 2,3-dimethyl-7-[3-(1-naphthyloxy)propyl]-10,11,12,13,14,15-hexahydro-2H-pyrazolo[4′,3′:4,5]azacycloundecino[3,2,1-hi]indole-8-carboxylic acid-N-ethylethanamine Salt (Enantiomer 2)], the IC50 against MCL-1 was 0.123 µM; in the series with SUDHL5 [3] (72 h incubation), 2.03e-05 M; in the series with SUDHL10 [4] (72 h incubation), 9.22e-06 M; in the series with A2780, 1.8e-05 M; in the series on SUDHL5 [5] (5 h incubation), over 3.3e-05 M; in the series on SUDHL10 [6] (5 h incubation), over 3.3e-05 M. Besides, the EC50 in the series on SUDHL5 [1] and in the series on SUDHL10 [2] was over 33 µM throughout.

For `Cn1nc2c(c1C(F)(F)F)-c1cccc3c(CCCOc4cccc5ccccc45)c(C(=O)O)n(c13)CCCCOC2` (single isomer, unassigned; enantiomer 2) [Example 195, 2-methyl-7-[3-(naphthalen-1-yloxy)propyl]-3-(trifluoromethyl)-2,10,11,12,13,15-hexahydropyrazolo[4′,3′:9,10][1,6]oxazacycloundecino[8,7,6-hi]indole-8-carboxylic Acid (Enantiomer 2)], the IC50 on MCL-1 was 0.0532 µM; in the series on SUDHL5 [3] (72 h incubation) it was 5.84e-06 M; in the series on SUDHL10 [4] (72 h incubation) it was 1.32e-05 M; with A2780, 1.27e-05 M; with SUDHL5 [5] (5 h incubation), over 3.3e-05 M; in the series with SUDHL10 [6] (5 h incubation), over 3.3e-05 M. Moreover, the EC50 in the series with SUDHL5 [1] and in the series on SUDHL10 [2] was over 33 µM each time.

Take `CCCc1nn(C)c2c1-c1c(C)ccc3c(CCCOc4cccc5ccccc45)c(C(=O)O)n(c13)CCCN(C)C2` (single isomer, unassigned; enantiomer 2) [Example 197, 7,9,12-trimethyl-1-[3-(naphthalen-1-yloxy)propyl]-1-propyl-4,5,6,7,8,9-hexahydropyrazolo[3′,4′:7,8][1,5]diazecino[9,10,1-hi]indole-2-carboxylic acid-N-ethylethanamine Salt (Enantiomer 2)]: the IC50 against MCL-1 was 0.104 µM; with SUDHL5 [3] (72 h incubation), 1.78e-05 M; with SUDHL10 [4] (72 h incubation) it was 8.15e-06 M; with A2780, 1.49e-05 M; in the series on SUDHL5 [5] (5 h incubation), 1.93e-05 M; in the series with SUDHL10 [6] (5 h incubation), 1.55e-05 M. The figures for the EC50 with SUDHL5 [1] and with SUDHL10 [2] were 28.7 µM and over 33 µM, respectively.

For the compound `CCc1nn(CCN2CCOCC2)c2c1-c1cccc3c(CCCOc4cccc5ccccc45)c(C(=O)O)n(c13)CCCCOC2` (single isomer, unassigned; enantiomer 2) [Example 200, 3-ethyl-1-[2-(morpholin-4-yl)ethyl]-7-[3-(naphthalen-1-yloxy)propyl]-1,10,11,12,13,15-hexahydropyrazolo[4′3′:9,10][1,6]oxazacycloundecino[8,7,6-hi]indole-carboxylic Acid (Enantiomer 2)], the IC50 on MCL-1 stood at 0.0248 µM; with SUDHL5 [3] (72 h incubation), 1.87e-05 M; in the series on SUDHL10 [4] (72 h incubation) it was 1.12e-05 M; with A2780 it was 2.57e-05 M; in the series on SUDHL5 [5] (5 h incubation) it was 2.41e-05 M; in the series with SUDHL10 [6] (5 h incubation), 1.99e-05 M. Further, the EC50 with SUDHL5 [1] is over 33 µM; in the series with SUDHL10 [2] it was 18.8 µM.

With `COc1ccc(OCc2nn(C)c3c2-c2cccc4c(CCCOc5cccc6ccccc56)c(C(=O)O)n(c24)CCCCOC3)cc1` (single isomer, unassigned; enantiomer 2) [Example 321, 3-[(4-methoxyphenoxy)methyl]-1-methyl-7-[3(naphthalen-1 yloxy)propyl]-1,10,11,12,13,15-hexahydropyrazolo[4′,3′:9,10][1,6]oxazacycloundecino[8,7,6-hi]indole-8-carboxylic acid-N-ethylethanamine Salt (Enantiomer 2)], the IC50 came to 0.639 µM against MCL-1; 1.22e-05 M in the series on SUDHL5 [3] (72 h); 4.61e-06 M in the series with SUDHL10 [4] (72 h); 1e-05 M in the series on A2780; 2.97e-05 M with SUDHL5 [5] (5 h); 2.56e-05 M in the series on SUDHL10 [6] (5 h). For the same compound, the EC50 was 30.3 µM in the series on SUDHL5 [1] and over 33 µM in the series on SUDHL10 [2].

Regarding `Cn1nc(COc2ccc(NS(C)(=O)=O)cc2)c2c1COCCCCn1c(C(=O)O)c(CCCOc3cccc4ccccc34)c3cccc-2c31` (single isomer, unassigned; enantiomer 2) [Example 323, 1-methyl-3-({4-[(methylsulfonyl)amino]phenoxy}methyl)-7-[3-(naphthalen-1-yloxy)propyl]-1,10,11,12,13,15-hexahydropyrazolo[4′,3′:9,10][1,6]oxazacycloundecino[8,7,6-hi]indole-8-carboxylic acid-N-ethylethanamine Salt (Enantiomer 2)], the IC50 is 0.32 µM against MCL-1; 1.32e-05 M in the series on SUDHL5 [3] (72 h); 1.36e-05 M with SUDHL10 [4] (72 h); 2.18e-05 M in the series on A2780; over 3.3e-05 M with SUDHL5 [5] (5 h); over 3.3e-05 M in the series with SUDHL10 [6] (5 h). For the same compound, the EC50 in the series on SUDHL5 [1] and in the series on SUDHL10 [2] was over 33 µM throughout.

As for `Cn1nc(CN2CCCCC2=O)c2c1COCCCCn1c(C(=O)O)c(CCCOc3cccc4ccccc34)c3cccc-2c31` (single isomer, unassigned; enantiomer 2) [Example 327, 1-methyl-7-[3-(naphthalen-1-yloxy)propyl]-3-[(2-oxopiperidin-1-yl)methyl]-1,10,11,12,13,15-hexahydropyrazolo[4′,3′:9,10][1,6]oxazacycloundecino[8,7,6-hi]indole-8-carboxylic Acid (Enantiomer 2)], the IC50 against MCL-1 is 0.103 µM; with SUDHL5 [3] (72 h) it was 2.48e-05 M; in the series on SUDHL10 [4] (72 h), 1.3e-05 M; with A2780, 3.12e-05 M; in the series with SUDHL5 [5] (5 h), over 3.3e-05 M; in the series with SUDHL10 [6] (5 h) it was over 3.3e-05 M. Also, the EC50 with SUDHL5 [1] and with SUDHL10 [2] was over 33 µM in each case.
